Paper PMC12396409, “Screening and hit evaluation of a microbial metabolite library against the pathogenic Plasmodium falciparum and Toxoplasma gondii parasites” (International Journal for Parasitology: Drugs and Drug …, 2025)
Where two headings read alike, the source gives them in different places.

How the values were obtained:
[1] = tested on: P. falciparum 3D7 parasites; assay: P. falciparum growth inhibition assay, 2-cycle (120 h treatment), delayed-death screen and dose-response; format: cell-based, Plasmodium falciparum
[2] = tested on: P. falciparum 3D7 parasites; assay: P. falciparum growth inhibition assay, 1-cycle (72 h treatment), SYBR DNA staining (library screen at 2 μg/mL and dose-response); format: cell-based, Plasmodium falciparum
[3] = tested on: T. gondii RH strain (RH-Tub-eYFP) tachyzoites; assay: microbe, parasite or virus in culture; format: cell-based, Toxoplasma gondii; settings: 72 h; for percent parasite growth at 2 µg/mL: Toxoplasma gondii
[4] = library screen at 2 μg/mL, 120 h, % growth, replicate 1
[5] = library screen at 2 μg/mL, 120 h, % growth, replicate 2
[6] = library screen at 2 μg/mL, 72 h, % growth, replicate 1
[7] = library screen at 2 μg/mL, 72 h, % growth, replicate 2
[8] = library screen at 2 μg/mL, % growth, replicate 1
[9] = library screen at 2 μg/mL, % growth, replicate 2
[10] = T. gondii, 2 μg/mL, values are growth (% of control)

**Q.** Which Pf_120h_%Growth_Rep1 [1, 4] does the source give for `CC(CCCCCCCCCCCCCCOC1OC(CO)C(O)C(O)C1O)C(O)=C1C(=O)C(C)N(C)C1=O` (stereo not drawn) [Epicoccamide] here?
**A.** The Pf_120h_%Growth_Rep1 was 94.92%.

**Q.** And the Pf_120h_%Growth_Rep2 [1, 5]?
**A.** Its Pf_120h_%Growth_Rep2 is 97.01%.

**Q.** What about the Pf_72h_%Growth_Rep1 [2, 6] of the same compound?
**A.** Its Pf_72h_%Growth_Rep1 is 87.59%.

**Q.** And the Pf_72h_%Growth_Rep2 [2, 7]?
**A.** Its Pf_72h_%Growth_Rep2 is 88.25%.

**Q.** What about the Tg_72h_%Growth_Rep1 [3, 8] of the same compound?
**A.** Its Tg_72h_%Growth_Rep1 is 135.91%.

**Q.** What about the Tg_72h_%Growth_Rep2 [3, 9] of the same compound?
**A.** Its Tg_72h_%Growth_Rep2 is 106.99%.

**Q.** `Cc1cccc(O)c1C(=O)O` [BIA-M1655] was tested. Which Pf_120h_%Growth_Rep1 ([1]; P. falciparum 3D7, 120 h, parasite screen at 2 μg/mL, % growth, replicate 1) did it give?
**A.** Its Pf_120h_%Growth_Rep1 is 96.92%.

**Q.** What about the Pf_120h_%Growth_Rep2 ([1]; P. falciparum 3D7, 120 h, parasite screen at 2 μg/mL, % growth, replicate 2) of the same compound?
**A.** The Pf_120h_%Growth_Rep2 was 97.37%.

**Q.** And the Pf_72h_%Growth_Rep1 ([2]; P. falciparum 3D7, 72 h, parasite screen at 2 μg/mL, % growth, replicate 1)?
**A.** Its Pf_72h_%Growth_Rep1 is 90.28%.

**Q.** And the Pf_72h_%Growth_Rep2 ([2]; P. falciparum 3D7, 72 h, parasite screen at 2 μg/mL, % growth, replicate 2)?
**A.** Its Pf_72h_%Growth_Rep2 is 64.98%.

**Q.** And the Tg_72h_%Growth_Rep1 ([3]; T. gondii, parasite screen at 2 μg/mL, % growth, replicate 1)?
**A.** The Tg_72h_%Growth_Rep1 was 91.77%.

**Q.** What about the Tg_72h_%Growth_Rep2 ([3]; T. gondii, parasite screen at 2 μg/mL, % growth, replicate 2) of the same compound?
**A.** The Tg_72h_%Growth_Rep2 was 83.98%.

**Q.** With `Cc1c2c(c(O)c3c(O)cccc13)C(=O)O[C@@H]2[C@H]1[C@H](N(C)C)C(O)=C(C(N)=O)C(=O)[C@@H]1O` [Apooxytetracycline, beta-] as the compound, how does the Pf_120h_%Growth_Rep1 [1, 4] read?
**A.** Its Pf_120h_%Growth_Rep1 is 69.86%.

**Q.** And the Pf_120h_%Growth_Rep2 [1, 5]?
**A.** Its Pf_120h_%Growth_Rep2 is 97.44%.

**Q.** And the Pf_72h_%Growth_Rep1 [2, 6]?
**A.** The Pf_72h_%Growth_Rep1 was 86.47%.

**Q.** What about the Pf_72h_%Growth_Rep2 [2, 7] of the same compound?
**A.** Its Pf_72h_%Growth_Rep2 is 89.55%.

**Q.** What about the Tg_72h_%Growth_Rep1 [3, 8] of the same compound?
**A.** Its Tg_72h_%Growth_Rep1 is 117.82%.

**Q.** And the Tg_72h_%Growth_Rep2 [3, 9]?
**A.** The Tg_72h_%Growth_Rep2 was 102.07%.

**Q.** With `C[C@@](O)(/C=C/[C@H]1CC=CC(=O)O1)[C@@H](C[C@@H](O)\C=C/C=C\C=C\CO)OP(=O)(O)O` [Fostriecin] as the compound, how does the activity at 2 µg/mL ([1]; Plasmodium falciparum, 3D7, 120 h, library screen at 2 μg/mL, 120 h, % growth, replicate 1, read-out: Pf_120h_%Growth_Rep1) read?
**A.** Its activity at 2 µg/mL is 36.9%.

**Q.** And the activity at 2 µg/mL ([1]; Plasmodium falciparum, 3D7, 120 h, library screen at 2 μg/mL, 120 h, % growth, replicate 2, read-out: Pf_120h_%Growth_Rep2)?
**A.** The activity at 2 µg/mL was 56%.

**Q.** What about the activity at 2 µg/mL ([2]; Plasmodium falciparum, 3D7, 72 h, library screen at 2 μg/mL, 72 h, % growth, replicate 1, read-out: Pf_72h_%Growth_Rep1) of the same compound?
**A.** The activity at 2 µg/mL was 29.1%.

**Q.** What about the activity at 2 µg/mL ([2]; Plasmodium falciparum, 3D7, 72 h, library screen at 2 μg/mL, 72 h, % growth, replicate 2, read-out: Pf_72h_%Growth_Rep2) of the same compound?
**A.** The activity at 2 µg/mL was 38.8%.

**Q.** What about the percent parasite growth at 2 µg/mL ([3]; library screen at 2 μg/mL, % growth, replicate 1, read-out: Tg_72h_%Growth_Rep1) of the same compound?
**A.** The percent parasite growth at 2 µg/mL was 113%.

**Q.** And the percent parasite growth at 2 µg/mL ([3]; library screen at 2 μg/mL, % growth, replicate 2, read-out: Tg_72h_%Growth_Rep2)?
**A.** The percent parasite growth at 2 µg/mL was 102%.

**Q.** Which results are given for `CCC(C=CC1OC(=O)C=CC1C)=CC(C)CC=CC(C)=CC(C)C(=O)C(C)C(O)C(C)CC(C)=CC(=O)O` (stereo not drawn) [BIA-L1046]?
**A.** Pf_120h_%Growth_Rep1 ([1]; P. falciparum 3D7, 120 h, library screen at 2 μg/mL, % growth, replicate 1): 2.03%; Pf_120h_%Growth_Rep2 ([1]; P. falciparum 3D7, 120 h, library screen at 2 μg/mL, % growth, replicate 2): 15.00%; Pf_72h_%Growth_Rep1 ([2]; P. falciparum 3D7, 72 h, library screen at 2 μg/mL, % growth, replicate 1): 6.41%; Pf_72h_%Growth_Rep2 ([2]; P. falciparum 3D7, 72 h, library screen at 2 μg/mL, % growth, replicate 2): 2.57%; Tg_72h_%Growth_Rep1 ([3]; T. gondii RH, library screen at 2 μg/mL, % growth, replicate 1): 1.37%; Tg_72h_%Growth_Rep2 ([3]; T. gondii RH, library screen at 2 μg/mL, % growth, replicate 2): 0.53%

**Q.** Which results are given for `CO[C@@H]1[C@@H](O)[C@@H](O)[C@@H](Oc2ccc3c(O)c(NC(=O)c4ccc(O)c(CC=C(C)C)c4)c(=O)oc3c2C)OC1(C)C` [Descarbamylnovobiocin]?
**A.** Pf_120h_%Growth_Rep1 [1, 4]: 85.93%; Pf_120h_%Growth_Rep2 [1, 5]: 82.51%; Pf_72h_%Growth_Rep1 [2, 6]: 85.51%; Pf_72h_%Growth_Rep2 [2, 7]: 80.09%; Tg_72h_%Growth_Rep1 [3, 8]: 154.63%; Tg_72h_%Growth_Rep2 [3, 9]: 96.44%

**Q.** Which results are given for `CN(C)[C@@H]1C(O)=C(C(N)=O)C(=O)[C@@]2(O)C(O)=C3C(=O)c4c(O)ccc(Cl)c4[C@@H](O)[C@H]3C[C@@H]12` [Demeclocycline]?
**A.** activity at 2 µg/mL ([1]; Plasmodium falciparum, 3D7, 120 h, P. falciparum, 120 h, screen at 2 μg/mL, replicate 1, read-out: Pf_120h_%Growth_Rep1): 101%; activity at 2 µg/mL ([1]; Plasmodium falciparum, 3D7, 120 h, P. falciparum, 120 h, screen at 2 μg/mL, replicate 2, read-out: Pf_120h_%Growth_Rep2): 94.8%; activity at 2 µg/mL ([2]; Plasmodium falciparum, 3D7, 72 h, P. falciparum, 72 h, screen at 2 μg/mL, replicate 1, read-out: Pf_72h_%Growth_Rep1): 85.8%; activity at 2 µg/mL ([2]; Plasmodium falciparum, 3D7, 72 h, P. falciparum, 72 h, screen at 2 μg/mL, replicate 2, read-out: Pf_72h_%Growth_Rep2): 87%; percent parasite growth at 2 µg/mL ([3]; T. gondii, screen at 2 μg/mL, replicate 1, read-out: Tg_72h_%Growth_Rep1): 157%; percent parasite growth at 2 µg/mL ([3]; T. gondii, screen at 2 μg/mL, replicate 2, read-out: Tg_72h_%Growth_Rep2): 107%

**Q.** With `CO[C@@H]1[C@@H](O[C@@H]2O[C@H](C)[C@@H](O[C@H]3C[C@@](C)(O)[C@@H](OC(=O)CC(C)C)[C@H](C)O3)[C@H](N(C)C)[C@H]2O)[C@@H](CC=O)C[C@@H](C)[C@@H](O)/C=C/C=C/C[C@@H](C)OC(=O)C[C@H]1OC(C)=O` [Josamycin (Leucomycin A3), reference compound] as the compound, how does the “3) Fold change (72 h/120 h)” value [1] read?
**A.** Its value is 5.3.

**Q.** What about the activity at 2 µg/mL ([1]; Plasmodium falciparum, 3D7, 120 h, P. falciparum, 2 μg/mL, 120 h; read-out: 2) Growth (%) at 120 h) of the same compound?
**A.** The activity at 2 µg/mL was 10.1%.

**Q.** What about the activity at 2 µg/mL ([2]; Plasmodium falciparum, 3D7, 72 h, P. falciparum, 2 μg/mL, 72 h; read-out: 1) Growth (%) at 72 h) of the same compound?
**A.** Its activity at 2 µg/mL is 53.5%.

**Q.** And the Mean ([3]; T. gondii, 2 μg/mL, mean of both replicates, growth (% of control))?
**A.** Its Mean is 20.93.

**Q.** And the “Replicate 1” value [3, 10]?
**A.** The value was 18.33.

**Q.** What about the “Replicate 2” value [3, 10] of the same compound?
**A.** Its value is 23.52.
